US20050026845A1, “Pharmaceutical/cosmetic compositions comprising the lysine-D-proline-valine tripeptide” (priority 1995, published 2005)
Each block holds one molecule with its values, some of them ahead of it. Non-standard residues stand in square brackets, D forms with d. Residues, ends and D or L forms follow the SMILES beside them.

Assays:
[1] = test system: catagenic papilla cells; test: Inhibition of IL-1α-induced production of PGE2 by catagenic papilla cells cultured in vitro; type: cell-based; conditions: 10 μM tripeptide; for PGE2: IL-1α 10 ng/ml, control 9.2, IL-1α alone 100.2; for % inhibition: PGE2 induced by IL-1α 10 ng/ml
Description: Measurement of the inhibition of the production of PGE2 by catagenic papilla cells cultured in vitro.
The cells (1,000 per well), at the 24th passage, were incubated in 199 medium marketed by Gibco in the presence of 1% foetal calf serum and of antibiotics. 20 hours later, the medium was replaced by an identical medium, but containing the tripeptides to be evaluated at a final concentration of 10 μM. 5 hours later, interleukin-1α was added at a final concentration of 10 ng/ml. 20 hours later, the PGE2 levels produced by the cultured papilla cells were evaluated by means of a Biotrack kit marketed by Amersham, the manufacturer's instructions being followed. This method thus made it possible to evaluate the inhibiting effect of these tripeptides on the production of PGE2 induced by a proinflammatory cytokine: interleukin-1α.

[2] = test system: type-1 IL-1 receptor (IL-1R1); test: Expression of type-1 IL-1 receptor mRNA in plucked hairs (RT-PCR, relative to GAPDH), 3 h 30 min; type: cell-based, human; conditions: treated batch vs control batch (100%), dose not given
Description: (§1) Inhibition of the expression of the messenger RNAs of proinflammatory and inflammatory cytokines in response to the Ac-LPV-NH2* tripeptide.
(§2) Ten plucked hairs were removed from the region of the vertex of a volunteer suffering from inflammatory alopecia. These were placed in a Williams' survival medium E (marketed by Gibco BRL) containing penicillin G (100 units/ml), streptomycin S (100 μg/ml) and amphotericin (250 ng/ml), in the presence (treated batch) or in the absence (control) of the Ac-LPV-NH2* tripeptide, synthesized to order by Neosystem S.A., (Strasbourg).
(§3) After incubating for 3 h, 30 min, the messenger RNAs corresponding to these two batches of hair were purified from a “quick prep mRNA purification kit” marketed by Pharmacia. DNAs complementary to these mRNAs were then prepared by means of a reverse transcription kit marketed by Pharmacia, the manufacturer's instructions being followed, and then subjected to a polymerization chain reaction (PCR) stage by using primers specific for the mRNAs of glyceraldehyde-3-phosphate dehydrogenase (GAPDH), of IL-1α, of the type-1 IL-1 receptor and of the type-2 IL-1 receptor. The amounts of amplified DNA were then evaluated by electrophoresis on 1.5% agarose gel in the presence of ethidium bromide. […]

[3] = test system: interleukin-1α; test: Production of interleukin-1α in the supernatant of plucked hairs (ELISA); type: cell-based, human; conditions: 20 hours; for % of inhibition: IL-1α in supernatant; for IL-1α: plucked hairs from inflammatory alopecia, control 21.8 pg/ml
Description: Dose-response activity of the Ac-LPV-NH2* tripeptide with respect to the production of interleukin-1α in the supernatant of plucked hairs emanating from a patient afflicted with inflammatory alopecia.
Plucked hairs were removed from the region of the vertex of a volunteer suffering from inflammatory alopecia. They were placed in a Williams' survival medium E (marketed by Gibco BRL) containing penicillin G (100 units/ml), streptomycin S (100 μg/ml) and amphotericin (250 ng/ml), in the presence or in the absence (control) of the Ac-LPV-NH2* tripeptide, synthesized to order by Neosystem S.A. (Strasbourg), at the doses indicated. After incubating for 20 hours, the culture supernatants were collected in a tube and then centrifuged for 5 minutes at 14,000 revolutions/minute (Eppendorff centrifuge, model 5415C). The supernatants were then collected in a clean tube and placed at 4° C.
The interleukin-1α concentration was then evaluated with respect to 100 μl of supernatant by means of a Biotrak ELISA kit marketed by Amersham, according to the manufacturer's instructions.

[4] = test system: IL-1α; test: Expression of the mRNAs of IL-1α from the IL-1α/GAPDH ratio, plucked hairs of two donors, 20 hours; type: cell-based, human
Description: Inhibiting effect of Ac-LPV-NH2* on the expression of the mRNAs of IL-1α, calculated from the IL-1α/GAPDH ratio.
5 hairs were plucked from two different donors and were then incubated for 20 hours at 37° C. (5% CO2) in Williams' medium E supplemented with antibiotics and with glutamine and in the presence of Ac-LPV-NH2* at the concentrations indicated. A control was carried out in which there was no peptide added.

[5] = test system: IL-1α; test: Expression of IL-1α mRNA in plucked hairs (RT-PCR, relative to GAPDH), 3 h 30 min; type: cell-based, human; conditions: treated batch vs control batch (100%), dose not given
Description: as §1, §2, §3

SMILES: CC(=O)N[C@@H](CCCCN)C(=O)N1CCC[C@@H]1C(=O)N[C@H](C(N)=O)C(C)C [Ac-L-(D)P-V-NH2***, Acetyl-(L) Lys-(D) Pro-(L) Val-NH2] (Ac-Lys-[dP]-Val-NH2)
PGE2 [1]: 24.6 pg/mL
% inhibition [1]: 75%

% of expression IL-1R1 [2]: 26%
SMILES: CC(=O)N[C@H](CCCCN)C(=O)N1CCC[C@@H]1C(=O)N[C@@H](C(N)=O)C(C)C [Acetyl-(D) Lys-(D) Pro-(D) Val-NH2] (Ac-[dK]-[dP]-[dV]-NH2)
% of inhibition ([3]; dose 1 μM): 49%
IL-1α ([3]; dose 1 μM): 11.1 pg/mL
% of inhibition ([3]; dose 10 μM): 72%
IL-1α ([3]; dose 10 μM): 6.1 pg/mL
expression of the mRNAs of IL-1α, % of the control ([4]; donor A, 1 μM): 51%
expression of the mRNAs of IL-1α, % of the control ([4]; donor A, 10 μM): 28%
expression of the mRNAs of IL-1α, % of the control ([4]; donor B, 0.1 μM): 53%
expression of the mRNAs of IL-1α, % of the control ([4]; donor B, 1 μM): 62%
expression of the mRNAs of IL-1α, % of the control ([4]; donor B, 10 μM): 28.7%
PGE2 [1]: 28.0 pg/mL
% inhibition [1]: 78%
% of expression IL-1α [5]: 0%

SMILES: CC(=O)N[C@@H](CCCCN)C(=O)N1CCC[C@H]1C(=O)N[C@H](C(N)=O)C(C)C [Acetyl-(L) Lys-(L) Pro-(L) Val-NH2, reference compound] (Ac-Lys-Pro-Val-NH2)
PGE2 [1]: 10.0 pg/mL
% inhibition [1]: 90%
